The values below come from patent US20130072506A1, “6,8-DISUBSTITUTED PURINE COMPOSITIONS” (priority 2011, published 2013).

Series [1] concerns cytokinin-dependent tobacco callus. The series is described as follows: Growth of cytokinin-dependent tobacco callus (plant cell division). The class given is cell-based, Nicotiana tabacum L. cv. Wisconsin 38. The following applies: for Activity (%): at concentration with highest activity, activity of kinetin set at 100%. As to the method:
The effect on plant cell division. Cytokinin-dependent tobacco callus Nicotiana tabacum L. cv. Wisconsin 38 was maintained at 25° C. in darkness on modified MS medium, containing 4 μmol/l nicotinic acid, 2.4 μmol/l pyridoxine hydrochloride, 1.2 μmol/l thiamine, 26.6 μmol/l glycine, 1.37 μmol/l glutamine, 1.8 μmol/1 myo-inositol, 30 g/l of sucrose, 8 g/l of agar, 5.37 μmol/l NAA and 0.5 μmol/l BAP. Subcultivation was carried out every three weeks. Fourteen days before the bioassay, the callus tissue was transferred to the media without BAP. Biological activity was determined from the increase in fresh callus weight after four weeks of cultivation. Five replicates were prepared for each cytokinin concentration and the entire test was repeated twice. From the obtained data, the concentration with highest activity was selected for each compound tested. Relative activity at this concentration was calculated (see Table 4 below).
The cytokinins to be tested were dissolved in dimethylsulfoxide (DMSO) and the solution brought up to 10^−3M with distilled water.

The subject of series [2] is T-lymphoblastic leukemia cell line CEM. The series is described as follows: In vitro cytotoxic activity (metabolisation of Calcein AM). The class given is cell-based, human. To be noted: Homo sapiens, CCRF-CEM, CEM cells, 72 hours incubation, called GI50, read-out: Cell line tested/IC50 (μmol/L) CEM. The method, boiled down:
(§1)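 Cells were pre-incubated 24 hours at 2.500-30.000 cells per well, then exposed to six 3-fold dilutions, usually from 100 μM top, for 72 hours at 37° C, 5% CO2, in triplicate. Calcein AM was added at 1 μg/ml final and fluorescence read after 1 hour; GI50 is the concentration halving Calcein AM conversion.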

Series [3] concerns breast carcinoma cell line MCF-7. Described as above. The class given is cell-based, human. The following applies: Homo sapiens, MCF7 cells, 72 hours incubation, called GI50, read-out: Cell line tested/IC50 (μmol/L) MCF7. The method, boiled down: as §1
In series [4] the test system is erytroid leukemia cell line K-562. The description is as above. The class given is cell-based, human. The following applies: Homo sapiens, K562, K-562 cells, 72 hours incubation, called GI50, read-out: Cell line tested/IC50 (μmol/L) K-562. The method, boiled down:
as §1

In the next series the test system is melanoma cell line G-361. Described as above. The class given is cell-based, human. To be noted: Homo sapiens, G-361 cells, 72 hours incubation, called GI50, read-out: Cell line tested/IC50 (μmol/L) G-361. In outline:
as §1

In series [5] the test system is normal diploid fibroblasts BJ. Described as above. The class given is cell-based, human. The following applies: Homo sapiens, BJ cells, 72 hours incubation, called GI50, read-out: Cell line tested/IC50 (μmol/L) BJ. The method, boiled down:
as §1

Series [6] relates to osteosarcoma cell line HOS. The series is described as above. To be noted: Homo sapiens, HOS cells, 72 hours incubation, called GI50, read-out: Cell line tested/IC50 (μmol/L) HOS. The class given is cell-based, human. In outline: as §1
Series [7] concerns Human diploid fibroblast BJ. The series is described as follows: In vitro cytotoxic activity (metabolisation of MTT). The class given is cell-based. To be noted: 72 hours, BJ passage 18-22. On the procedure:
In vitro Cytotoxic Activity (metabolisation of Mtt). MTT ([…]) assay is a standard colorimetric assay for evaluation of cytotoxicity. Mitochondrial dehydrogenase activity converts yellow MTT into violet formazan which is measured by means of spectrometry.
Human diploid fibroblast BJ (passage 18-22) were seeded into 96-well plate (5.000 cells per well). After 6 hours cultivation medium (DMEM with 5 g/l glucose, 2 mM glutamine, 100 U/ml penicillin, 100 mmg/ml streptomycin, 10% fetal calf serum and sodium bicarbonate) was replaced with the cultivation medium containing test compounds in concentration range of 0-200 μM. Highest concentration was adjusted if the solubility of the compound was limiting. Every concentration was tested in pentaplicate. MTT was added to the cells after 72 hours incubation (final concentration 0.5 mg/ml) and incubation continued for another 3 hours. MTT was solubilised by DMSO and absorbance at 570 nm was measured. Growth inhibition (GI) was estimated using the following equitation: GI=(mean A drug exposed wells−mean Ablank/mean Acontrol wells−mean Ablank)×100%. The GI20 value, the drug concentration causing 20% decrease in mitochondrial dehydrogenase activity, was calculated from the obtained dose response curves.

The subject of series [8] is Amaranthus caudatus cotyledon/hypocotyl explants. Kind of series: Amaranthus bioassay (betacyanin content). The class given is in vivo, Amaranthus caudatus var. atropurpurea. To be noted: for Activity (%): at concentration with highest activity, activity of kinetin set at 100%; for Concentration with highest activity: betacyanin content, 48 hours in darkness. On the procedure: Testing of Novel Compounds in Amaranthus bioassay. Standard Amaranthus bioassay was performed with several modifications. The seeds of Amaranthus caudatus var. atropurpurea were surface-sterilized in 10% N-chlorobenzene sulfonamide (w/v) for 10 min and washed 5 times in deionized water. They were placed in 14 cm Petri dishes containing paper tissues saturated with deionized water. After 72 hours of cultivation at 25° C. in darkness, the roots of the seedlings were cut off. The explants, consisting of two cotyledons and hypocotyls, were placed in 5 cm Petri dishes on two layers of filter paper soaked in 1 ml of incubation medium containing 10 μmol Na2HPO4—KH2PO4, pH 6.8, 5 μmol tyrosine and the cytokinin to be tested. There were 20 explants per dish. The procedure was carried out under a green safe light in a darkroom. After a 48 hours of incubation at 25° C. in darkness, betacyanin was extracted by freezing the explants in 4 ml 3.33 μM acetic acid. The concentration of betacyanin was determined by comparing the absorbance at 537 nm and 620 nm as follows: DA=A537nm−A620nm. From the obtained data, the concentration with highest activity was selected for each compound tested. Relative activity of the compound at this concentration was calculated (see Table 3 below). […] The values shown in Table 3 are means of five replicates and the entire test was repeated twice.
The cytokinins to be tested were dissolved in dimethylsulfoxide (DMSO) and the solution brought up to 10^−3 M with distilled water.

Compound `Nc1nc2ncnc(NCc3ccccc3)c2[nH]1` [Compound 83, 8-Amino-6-benzylaminopurine] yielded a melting point of 223 to 226 °C. The “Activity (%)” value in [1] was 197.08%. For the same compound, the IC50 in [2] is > 50 µmol/L. Besides, the IC50 in series [3] was > 50 µmol/L. Besides, in series [4], the IC50 was > 50 µmol/L. In the series on melanoma cell line G-361, the IC50 was > 50 µmol/L. Further, the IC50 in series [5] is > 50 µmol/L. Further, the IC50 in series [6] is > 50 µmol/L. The GI20 in series [7] was >100 µM.

With `CC(C)=CCNc1ncnc2nc(N)[nH]c12` [Compound 87, 6-(3-methylbut-2-en-1-ylamino)-8-aminopurine], the “Activity (%)” value in series [8] was 171.36%; in series [1] it was 150.44%. Moreover, the “Concentration with highest activity” value in [8] is 10^−4 mol/l. The IC50 (in series [2]; in series [3]; in [4]; with melanoma cell line G-361; in series [5]; in [6]) was > 50 µmol/L throughout. The GI20 in series [7] was >100 µM.

`COc1nc2ncnc(NCc3ccco3)c2[nH]1` [Compound 120, 6-Furfurylamino-8-methoxypurine] yielded a melting point of 196 to 198 °C. Besides, the IC50 in series [2] is > 50 µmol/L. The IC50 in series [3] is > 50 µmol/L. Moreover, the IC50 in [4] was > 50 µmol/L. The IC50 in the series on melanoma cell line G-361 is > 50 µmol/L. The IC50 in [5] was > 50 µmol/L. Also, the IC50 in [6] was > 50 µmol/L.

For the compound `COc1nc2ncnc(NCc3ccccc3)c2[nH]1` [Compound 121, 6-Benzylamino-8-methoxypurine], the “Activity (%)” value in series [8] was 121.15%; in [1], 129.11%. In [8], the “Concentration with highest activity” value was 10^−4 mol/l. Moreover, the IC50 (in series [2]; in series [3]; in series [4]; in the series with melanoma cell line G-361; in [5]; in series [6]) was > 50 µmol/L each time.

Compound `CSc1nc2ncnc(NCc3ccccc3)c2[nH]1` [Compound 148, 6-Benzylamino-8-methylsulphanylpurine] gave a melting point of 234 to 237 °C. In addition, the “Activity (%)” value in series [1] is 109.36%.

In turn, `Oc1nc2ncnc(NCc3ccccc3)c2[nH]1` [Compound 167, 6-Benzylamino-8-hydroxypurine] displayed a melting point of 243 to 247 °C. Further, in series [2], the IC50 was > 50 µmol/L. In addition, in [3], the IC50 is > 50 µmol/L. Besides, in [4], the IC50 was > 50 µmol/L. For the same compound, in the series on melanoma cell line G-361, the IC50 was > 50 µmol/L. In series [5], the IC50 is > 50 µmol/L. Moreover, the IC50 in series [6] was > 50 µmol/L.

Take `NCc1nc2ncnc(NCc3ccccc3)c2[nH]1` [Compound 181, 8-Aminomethyl-6-benzylaminopurine]: the melting point lay in the range of 187 to 189 °C. Also, the IC50 in series [2] was > 50 µmol/L. In addition, the IC50 in series [3] is > 50 µmol/L. In addition, in series [4], the IC50 is > 50 µmol/L. In addition, the IC50 in the series with melanoma cell line G-361 is > 50 µmol/L. Also, in series [5], the IC50 is > 50 µmol/L. Moreover, the IC50 in series [6] is > 50 µmol/L.

In the case of `COC(=O)c1nc2ncnc(NCc3ccccc3)c2[nH]1` [Compound 188], the “Activity (%)” value in series [8] is 122.51%; in series [1] it was 148.91%. Moreover, the “Concentration with highest activity” value is on record as 10^−4 mol/l in [8] and 10^−6 mol/l in series [1] (increase in fresh callus weight after four weeks).

In turn, `NCCCNc1nc2ncnc(NCc3ccccc3)c2[nH]1` [Compound 209, 8-(3-Aminopropylamino)-6-benzylaminopurine] returned a melting point of 170 to 173 °C. In addition, the “Activity (%)” value in series [1] was determined as 150.01%. In addition, the IC50 in [2] was > 50 µmol/L. Besides, the IC50 in series [3] is > 50 µmol/L. Also, in series [4], the IC50 was > 50 µmol/L. The IC50 in the series with melanoma cell line G-361 is > 50 µmol/L. The IC50 in [5] is > 50 µmol/L. Besides, in [6], the IC50 is > 50 µmol/L. Besides, the GI20 in [7] was >100 µM.

`C/C(=C\CNc1ncnc2nc(N(C)C)[nH]c12)CO` [Example 7 (23), (E)-8-Dimethylamino-6-(4-hydroxy-3-methylbut-2-en-1-ylamino)purine] yielded a melting point of 245 to 249 °C.
